We go through three compounds from ChEMBL document CHEMBL2073940, “Vinblastine and sulfinpyrazone export by the multidrug resistance protein MRP2 is associated with glutathione export” (Br J Cancer, 2000).

Holding throughout (format): functional, cell-based
Settings in all cases: dog, mdck-ii

In series [1] the target is T1, Multidrug resistance-associated protein 1 (Homo sapiens, UniProt P33527). Put plainly: TP_TRANSPORTER: inhibition of Glutathione efflux (Benzbromarone: 25 uM) in MRP1-expressing MDCKII cells.
T1 sequence (P33527 whole entry): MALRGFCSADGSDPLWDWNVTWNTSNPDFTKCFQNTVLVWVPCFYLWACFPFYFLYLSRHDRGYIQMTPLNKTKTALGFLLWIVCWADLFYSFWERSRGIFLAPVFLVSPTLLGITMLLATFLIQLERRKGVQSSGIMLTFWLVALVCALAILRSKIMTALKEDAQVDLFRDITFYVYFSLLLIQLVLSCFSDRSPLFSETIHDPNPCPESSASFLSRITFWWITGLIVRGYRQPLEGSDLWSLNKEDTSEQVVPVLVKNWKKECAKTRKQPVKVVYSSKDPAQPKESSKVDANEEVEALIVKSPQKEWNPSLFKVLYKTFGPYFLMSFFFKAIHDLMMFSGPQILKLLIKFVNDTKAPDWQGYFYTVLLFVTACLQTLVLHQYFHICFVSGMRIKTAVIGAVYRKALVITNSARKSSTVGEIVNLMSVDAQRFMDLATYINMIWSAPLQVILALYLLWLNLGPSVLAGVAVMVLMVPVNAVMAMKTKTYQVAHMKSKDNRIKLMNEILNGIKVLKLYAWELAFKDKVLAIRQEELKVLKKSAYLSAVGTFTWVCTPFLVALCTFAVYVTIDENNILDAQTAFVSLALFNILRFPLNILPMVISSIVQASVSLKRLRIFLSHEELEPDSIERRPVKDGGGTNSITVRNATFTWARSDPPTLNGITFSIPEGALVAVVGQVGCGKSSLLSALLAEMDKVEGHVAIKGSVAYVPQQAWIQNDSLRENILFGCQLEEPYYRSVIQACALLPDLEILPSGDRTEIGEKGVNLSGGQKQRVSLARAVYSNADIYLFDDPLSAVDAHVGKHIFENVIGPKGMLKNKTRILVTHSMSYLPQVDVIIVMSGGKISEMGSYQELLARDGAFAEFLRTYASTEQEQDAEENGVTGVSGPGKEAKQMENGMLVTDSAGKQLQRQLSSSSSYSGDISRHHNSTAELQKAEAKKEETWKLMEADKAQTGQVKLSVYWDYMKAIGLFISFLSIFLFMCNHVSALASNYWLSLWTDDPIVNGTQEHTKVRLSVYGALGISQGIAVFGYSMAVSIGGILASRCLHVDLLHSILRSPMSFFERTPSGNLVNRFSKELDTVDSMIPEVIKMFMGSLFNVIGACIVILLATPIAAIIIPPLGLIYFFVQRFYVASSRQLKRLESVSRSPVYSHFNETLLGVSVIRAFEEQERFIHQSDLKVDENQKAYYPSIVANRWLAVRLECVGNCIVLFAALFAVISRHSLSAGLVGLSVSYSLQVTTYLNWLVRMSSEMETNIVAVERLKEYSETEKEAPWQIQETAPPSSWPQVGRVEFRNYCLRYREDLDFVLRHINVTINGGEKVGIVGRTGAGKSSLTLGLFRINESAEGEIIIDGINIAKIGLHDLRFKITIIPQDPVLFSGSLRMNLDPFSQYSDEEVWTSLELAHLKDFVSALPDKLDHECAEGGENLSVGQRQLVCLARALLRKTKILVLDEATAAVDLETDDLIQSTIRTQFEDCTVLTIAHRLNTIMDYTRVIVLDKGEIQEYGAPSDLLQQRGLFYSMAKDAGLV
The target in series [2] is T1, Multidrug resistance-associated protein 1. Nature of the series: TP_TRANSPORTER: inhibition of Glutathione efflux (Indomethacin: 400 uM) in MRP1-expressing MDCKII cells.
Series [3] has the same target. Nature of the series: TP_TRANSPORTER: inhibition of Glutathione efflux (Sulfinpyrazone: 3200. uM) in MRP1-expressing MDCKII cells.
Series [4] concerns the target ATP-binding cassette sub-family C member 2 (Homo sapiens, UniProt Q92887). Nature of the series: TP_TRANSPORTER: transepithelial transport (basal to apical) in MRP2-expressing MDCKII cells.

ATP-binding cassette sub-family C member 2, sequence (Q92887 whole entry): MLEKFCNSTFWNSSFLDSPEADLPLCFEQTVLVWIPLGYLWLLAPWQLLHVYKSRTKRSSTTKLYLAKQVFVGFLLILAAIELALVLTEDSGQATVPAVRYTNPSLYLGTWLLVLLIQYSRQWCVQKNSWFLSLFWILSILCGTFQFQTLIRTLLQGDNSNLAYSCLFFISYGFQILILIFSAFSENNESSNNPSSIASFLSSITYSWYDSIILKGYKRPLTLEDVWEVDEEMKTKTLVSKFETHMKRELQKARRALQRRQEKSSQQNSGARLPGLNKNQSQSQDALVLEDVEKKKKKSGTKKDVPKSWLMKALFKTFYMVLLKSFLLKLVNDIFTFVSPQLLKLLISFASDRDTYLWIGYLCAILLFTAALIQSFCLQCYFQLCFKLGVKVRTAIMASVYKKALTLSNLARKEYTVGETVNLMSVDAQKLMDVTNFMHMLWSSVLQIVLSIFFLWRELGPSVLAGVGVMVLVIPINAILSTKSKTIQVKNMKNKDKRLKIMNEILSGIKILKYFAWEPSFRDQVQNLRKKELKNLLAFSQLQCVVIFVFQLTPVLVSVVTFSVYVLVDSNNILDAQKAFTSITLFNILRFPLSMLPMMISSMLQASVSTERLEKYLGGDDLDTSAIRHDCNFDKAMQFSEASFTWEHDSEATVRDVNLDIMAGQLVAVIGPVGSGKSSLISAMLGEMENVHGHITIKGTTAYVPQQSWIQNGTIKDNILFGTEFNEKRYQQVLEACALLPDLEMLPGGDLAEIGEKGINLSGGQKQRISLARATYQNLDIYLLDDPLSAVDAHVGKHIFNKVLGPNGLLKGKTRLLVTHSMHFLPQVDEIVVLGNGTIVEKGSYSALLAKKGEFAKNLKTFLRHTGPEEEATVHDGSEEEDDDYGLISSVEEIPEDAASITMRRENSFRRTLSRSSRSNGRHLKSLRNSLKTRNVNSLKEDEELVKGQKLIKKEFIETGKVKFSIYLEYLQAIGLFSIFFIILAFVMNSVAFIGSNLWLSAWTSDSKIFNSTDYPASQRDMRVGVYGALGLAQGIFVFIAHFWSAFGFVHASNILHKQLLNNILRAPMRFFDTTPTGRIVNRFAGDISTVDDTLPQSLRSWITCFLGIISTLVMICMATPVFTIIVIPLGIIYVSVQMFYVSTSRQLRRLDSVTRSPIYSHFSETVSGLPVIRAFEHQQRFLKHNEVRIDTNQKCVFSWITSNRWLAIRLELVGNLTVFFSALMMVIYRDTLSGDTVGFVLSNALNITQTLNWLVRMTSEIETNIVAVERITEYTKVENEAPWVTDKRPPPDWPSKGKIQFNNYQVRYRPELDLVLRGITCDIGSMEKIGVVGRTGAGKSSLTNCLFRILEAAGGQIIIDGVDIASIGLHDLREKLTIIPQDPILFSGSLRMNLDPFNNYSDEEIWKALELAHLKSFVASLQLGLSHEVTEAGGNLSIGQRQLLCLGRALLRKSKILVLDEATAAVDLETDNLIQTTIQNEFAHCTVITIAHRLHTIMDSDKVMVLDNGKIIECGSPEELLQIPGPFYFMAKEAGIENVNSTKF

For the compound `CCc1oc2ccccc2c1C(=O)c1cc(Br)c(O)c(Br)c1` [BENZBROMARONE], the Activity entry in series [1] was “inhibitor [+]”.
Turning to `COc1ccc2c(c1)c(CC(=O)O)c(C)n2C(=O)c1ccc(Cl)cc1` [INDOMETHACIN], the Activity entry in series [2] was “inhibitor [+]”.
Regarding `O=C1C(CC[S+]([O-])c2ccccc2)C(=O)N(c2ccccc2)N1c1ccccc1` (centres undefined) [SULFINPYRAZONE], the Activity result in series [3] was “inhibitor [+]”; in series [4] it was “substrate [+]”.
